Here are results for 15 molecules from ChEMBL document CHEMBL1926576, “Fragment based lead discovery of small molecule inhibitors for the EPHA4 receptor tyrosine kinase” (Eur J Med Chem, 2012).

In one experiment the target is T1, Ephrin type-A receptor 4 (Homo sapiens, UniProt P54764). Kind of experiment: Inhibition of his-tagged EPHA4-mediated poly(Glu,Tyr) phosphorylation at 500 uM after 75 mins using E4:Y1 as substrate by fluorescence assay.
T1 sequence (P54764 whole entry): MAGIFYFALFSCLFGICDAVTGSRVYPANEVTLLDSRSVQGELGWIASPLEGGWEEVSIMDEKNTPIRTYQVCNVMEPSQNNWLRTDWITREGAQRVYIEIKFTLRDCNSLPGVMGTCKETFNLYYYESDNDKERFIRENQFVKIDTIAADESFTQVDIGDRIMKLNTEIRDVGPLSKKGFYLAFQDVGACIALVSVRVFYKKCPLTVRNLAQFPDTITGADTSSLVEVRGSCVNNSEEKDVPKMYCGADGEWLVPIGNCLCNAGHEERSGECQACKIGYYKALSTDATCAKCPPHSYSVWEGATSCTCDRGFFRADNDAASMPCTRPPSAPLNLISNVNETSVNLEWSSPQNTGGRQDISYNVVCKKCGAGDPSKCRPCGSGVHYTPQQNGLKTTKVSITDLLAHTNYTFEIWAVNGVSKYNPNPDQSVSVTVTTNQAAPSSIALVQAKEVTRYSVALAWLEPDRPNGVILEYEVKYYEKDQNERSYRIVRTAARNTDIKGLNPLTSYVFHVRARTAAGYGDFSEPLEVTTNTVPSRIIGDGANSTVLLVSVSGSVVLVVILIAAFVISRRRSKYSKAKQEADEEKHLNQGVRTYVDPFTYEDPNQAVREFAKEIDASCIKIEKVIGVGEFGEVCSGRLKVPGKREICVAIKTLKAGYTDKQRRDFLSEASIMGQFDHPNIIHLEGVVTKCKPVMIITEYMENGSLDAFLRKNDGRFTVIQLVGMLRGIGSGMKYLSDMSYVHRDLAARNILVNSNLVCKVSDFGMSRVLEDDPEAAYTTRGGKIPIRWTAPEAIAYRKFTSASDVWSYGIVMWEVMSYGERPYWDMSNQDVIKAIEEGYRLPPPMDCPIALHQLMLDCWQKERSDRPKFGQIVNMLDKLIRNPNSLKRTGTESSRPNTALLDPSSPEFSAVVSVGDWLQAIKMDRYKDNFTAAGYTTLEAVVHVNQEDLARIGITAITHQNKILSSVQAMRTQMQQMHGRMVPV
By inhibition is commonly meant how much of the control response was suppressed. On to `Nc1n[nH]c2ncc3c(c12)CCCC3`, for which the inhibition was found to be 80%.

The target of a further experiment is T1, Ephrin type-A receptor 4. The experiment is described as follows: Inhibition of his-tagged EPHA4-mediated poly(Glu,Tyr) phosphorylation at 200 uM after 75 mins using E4:Y1 as substrate by fluorescence assay.
The molecule `CCCc1nc2[nH]nc(N)c2c2c1COC(C)(C)C2` came in with an inhibition of 77%.

`Cc1cc(C)c2c(NC(=O)c3ccccc3)n[nH]c2n1` had an inhibition of 10%. Turning to `CC1(C)Cc2c(c(-c3ccccc3)nc3[nH]nc(N)c23)CS1`, the inhibition came to 87%. `Cc1nc2[nH]nc(N)c2c2c1CSC(C)(C)C2` had an inhibition of 70%.

As to `CC1(C)Cc2c(c(-c3ccco3)[nH]c3nnc(N)c2-3)CO1`, the inhibition came out at 75%. Consider `CCN(CC)c1nc2[nH]nc(N)c2c2c1CN(C)CC2`, for which the inhibition amounted to 5%. Molecule `CN1CCc2c(c(NCc3ccccc3)nc3[nH]nc(N)c23)C1` yielded an inhibition of 33%. Consider `CC1(C)Cc2c(c(-c3ccccc3)nc3[nH]nc(N)c23)CO1`, for which the inhibition was found to be 90%.

`CN1CCc2c(c(N3CCOCC3)nc3[nH]nc(N)c23)C1` displayed an inhibition of 0%. With `Nc1n[nH]c2ncc3c(c12)CCCCCC3`, the inhibition came out at 80%. In the case of `CC(C)c1nc2[nH]nc(N)c2c2c1COC(C)(C)C2`, the inhibition was 82%. `CN1CCc2c(c(NCCO)nc3[nH]nc(N)c23)C1` came in with an inhibition of 0%.

Another experiment addresses T1, Ephrin type-A receptor 4. Kind of experiment: Inhibition of his-tagged EPHA4-mediated poly(Glu,Tyr) phosphorylation after 75 mins using E4:Y1 as substrate by fluorescence assay.
As usually defined, the IC50 is the concentration that gives 50% inhibition. In the case of `Cc1ccccc1-c1nc2[nH]nc(N)c2c2c1CCCC2`, the concentration for half-maximal inhibition (IC50) came out at 2 µM.

`Nc1n[nH]c2nc(-c3ccccc3Cl)c3c(c12)CCCC3` returned a 50% inhibitory concentration (IC50) of 8.1 µM. Against the preceding molecule, the IC50 is about 4-fold higher.
